Patent publication US20070259909A1, “Novel Difluoroethoxy-Substituted Hydroxy-6-Phenylphenanthridines and Their Use as Pde4 Inhibitors” (ALTANA PHARMA AG, priority 2004, published 2007)

Target: T1, PDE4B2 (Homo sapiens, UniProt Q07343)
T1 construct: made in house; host or cells: SF21 insect cells (baculovirus; virus generated in SF9 cells)
Assay: PDE4B2 [3H]cAMP SPA enzyme assay (inhibition of PDE4 activity)
Type: biochemical
Conditions: recombinant PDE4B2 (GB no. M97515) expressed in SF21 insect cells; cAMP substrate; 37° C., 15 min; read-out: -log IC50(mol/l), Inhibition of the PDE4 activity (converted)
Description: The PDE4B2 (GB no. M97515) was a gift of Prof. M. Conti (Stanford University, USA). It was amplified from the original plasmid (pCMV5) via PCR with primers Rb9 (5′-[…]-3′) and Rb10 (5′-[…]-3′) and cloned into the pCR-Bac vector (Invitrogen, Groningen, NL).
The recombinant baculovirus was prepared by means of homologous recombination in SF9 insect cells. The expression plasmid was cotransfected with Bac-N-Blue (Invitrogen, Groningen, NL) or Baculo-Gold DNA (Pharmingen, Hamburg) using a standard protocol (Pharmingen, Hamburg). Wt virus-free recombinant virus supernatant was selected using plaque assay methods. After that, high-titre virus supernatant was prepared by amplifying 3 times. […]
The SF21 insect cells were resuspended, at a concentration of approx. 10^7 cells/ml, in ice-cold (° C.) homogenization buffer (20 mM Tris, pH 8.2, containing the following additions: 140 mM NaCl, 3.8 mM KCl, 1 mM EGTA, 1 mM MgCl2, 10 mM P-mercaptoethanol, 2 mM benzamidine, 0.4 mM Pefablock, 10 μM leupeptin, […] pepstatin A, 5 μM trypsin inhibitor) and disrupted by ultrasonication. […] The protein content was determined by the Bradford method (BioRad, Munich) using BSA as the standard. […]
Representative inhibitory values determined for the compounds according to the invention follow from the following table A, in which the numbers of the compounds correspond to the numbers of the Examples.

T1 sequence (Q07343 1-564 isoform Q07343-2): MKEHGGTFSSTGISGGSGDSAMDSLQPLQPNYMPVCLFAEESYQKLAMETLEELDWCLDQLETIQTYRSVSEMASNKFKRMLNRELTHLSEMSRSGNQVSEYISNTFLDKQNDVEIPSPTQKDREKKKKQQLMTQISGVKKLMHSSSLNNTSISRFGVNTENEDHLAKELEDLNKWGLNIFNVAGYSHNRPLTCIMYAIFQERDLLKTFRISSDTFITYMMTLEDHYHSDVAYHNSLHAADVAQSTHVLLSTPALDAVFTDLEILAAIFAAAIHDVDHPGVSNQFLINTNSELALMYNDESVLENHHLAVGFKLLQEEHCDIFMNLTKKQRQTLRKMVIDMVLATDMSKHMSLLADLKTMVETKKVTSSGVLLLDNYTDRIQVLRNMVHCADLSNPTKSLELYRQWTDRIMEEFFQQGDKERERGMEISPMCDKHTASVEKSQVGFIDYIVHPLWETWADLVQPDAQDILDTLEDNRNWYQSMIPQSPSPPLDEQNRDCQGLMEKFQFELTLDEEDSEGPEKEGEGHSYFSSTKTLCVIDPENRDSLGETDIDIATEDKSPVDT

COc1cc2c(cc1OCC(F)F)C1CC(O)CCC1N=C2c1ccc(F)cc1 (racemic) [Compound 1, (2RS,4aRS,10bRS)-9-(2,2-Difluoroethoxy)-6(4fluorophenyl)-8-methoxy-(1,2,3,4,4a,10b)-hexahydrophenanthridin-2-ol]
IC50: 0.708 nM

COc1cc2c(cc1OCC(F)F)[C@H]1C[C@H](O)CC[C@H]1N=C2c1ccc(C#N)cc1 (racemic) [Compound 3, 4-[(2RS,4aRS,10bRS)-9-(2,2-Difluoro-ethoxy)-2-hydroxy-8-methoxy-1,2,3,4,4a,10b-hexahydro-phenanthridin-6-yl]-benzonitrile]
IC50: 1.82 nM
